Results taken from ChEMBL document CHEMBL5724806, “Unraveling interindividual differences and functional consequences of gut microbial metabolism of immunosuppressants” (2024).

What was measured:
Type in all cases: ADME
[1] = The drug is tested on the gut metagenome community of A-10 with ENA study accession number: PRJEB31790 for biotransformation under microaerobic condition. The drug concentrations were measured over 7 timepoints collected between 0 and 12 hours of incubation by liquid-chromatography-coupled mass spectrometry (LC–MS); set-up: dose 5 uM, timepoint 0, 0.75, 1.5, 3, 6, 9, 12 hours; details: 5 µM
[2] = The drug is tested on Capnocytophaga ochracea strain: DSM7271 for biotransformation under anaerobic condition. The drug concentrations were measured over 6 timepoints collected between 0 and 12 hours of incubation by liquid-chromatography-coupled mass spectrometry (LC–MS); set-up: dose 5 uM, timepoint 0, 1.5, 3, 6, 9, 12 hours; details: 5 µM
[3] = The drug is tested on Lactobacillus fermentum strain: DSM20052 for biotransformation under microaerobic condition. The drug concentrations were measured over 6 timepoints collected between 0 and 12 hours of incubation by liquid-chromatography-coupled mass spectrometry (LC–MS); set-up: dose 5 uM, timepoint 0, 1.5, 3, 6, 9, 12 hours; details: limosilactobacillus fermentum, 5 µM
[4] = The drug is tested on Gemella morbillorum strain: DSM20572 for biotransformation under anaerobic condition. The drug concentrations were measured over 6 timepoints collected between 0 and 12 hours of incubation by liquid-chromatography-coupled mass spectrometry (LC–MS); set-up: dose 5 uM, timepoint 0, 1.5, 3, 6, 9, 12 hours; details: 5 µM
[5] = The drug is tested on Odoribacter splanchnicus strain: DSM20712 for biotransformation under anaerobic condition. The drug concentrations were measured over 6 timepoints collected between 0 and 12 hours of incubation by liquid-chromatography-coupled mass spectrometry (LC–MS); set-up: dose 5 uM, timepoint 0, 1.5, 3, 6, 9, 12 hours; details: 5 µM
[6] = The drug is tested on Escherichia coli strain: DSM27469 for biotransformation under anaerobic condition. The drug concentrations were measured over 6 timepoints collected between 0 and 12 hours of incubation by liquid-chromatography-coupled mass spectrometry (LC–MS); set-up: dose 5 uM, timepoint 0, 1.5, 3, 6, 9, 12 hours; details: 5 µM
[7] = The drug is tested on Bifidobacterium longum strain: DSM20088 for biotransformation under anaerobic condition. The drug concentrations were measured over 6 timepoints collected between 0 and 12 hours of incubation by liquid-chromatography-coupled mass spectrometry (LC–MS); set-up: dose 5 uM, timepoint 0, 1.5, 3, 6, 9, 12 hours; details: 5 µM
[8] = The drug is tested on Parabacteroides distasonis strain: DSM20701 for biotransformation under anaerobic condition. The drug concentrations were measured over 6 timepoints collected between 0 and 12 hours of incubation by liquid-chromatography-coupled mass spectrometry (LC–MS); set-up: dose 5 uM, timepoint 0, 1.5, 3, 6, 9, 12 hours; details: 5 µM
[9] = The drug is tested on the gut metagenome community of A-01 with ENA study accession number: PRJEB31790 for biotransformation under microaerobic condition. The drug concentrations were measured over 7 timepoints collected between 0 and 12 hours of incubation by liquid-chromatography-coupled mass spectrometry (LC–MS); set-up: dose 5 uM, timepoint 0, 0.75, 1.5, 3, 6, 9, 12 hours; details: 5 µM
[10] = The drug is tested on the gut metagenome community of T-02 with ENA study accession number: PRJEB31790 for biotransformation under microaerobic condition. The drug concentrations were measured over 7 timepoints collected between 0 and 12 hours of incubation by liquid-chromatography-coupled mass spectrometry (LC–MS); set-up: dose 5 uM, timepoint 0, 0.75, 1.5, 3, 6, 9, 12 hours; details: 5 µM
[11] = The drug is tested on Prevotella copri strain: DSM18205 for biotransformation under anaerobic condition. The drug concentrations were measured over 6 timepoints collected between 0 and 12 hours of incubation by liquid-chromatography-coupled mass spectrometry (LC–MS); set-up: dose 5 uM, timepoint 0, 1.5, 3, 6, 9, 12 hours; details: segatella copri, 5 µM
[12] = The drug is tested on the gut metagenome community of A-09 with ENA study accession number: PRJEB31790 for biotransformation under microaerobic condition. The drug concentrations were measured over 7 timepoints collected between 0 and 12 hours of incubation by liquid-chromatography-coupled mass spectrometry (LC–MS); set-up: dose 5 uM, timepoint 0, 0.75, 1.5, 3, 6, 9, 12 hours; details: 5 µM
[13] = The drug is tested on Lactobacillus fermentum strain: DSM20052 for biotransformation under anaerobic condition. The drug concentrations were measured over 6 timepoints collected between 0 and 12 hours of incubation by liquid-chromatography-coupled mass spectrometry (LC–MS); set-up: dose 5 uM, timepoint 0, 1.5, 3, 6, 9, 12 hours; details: limosilactobacillus fermentum, 5 µM
[14] = The drug is tested on Bacteroides ovatus strain: ATCC 8483 for biotransformation under anaerobic condition. The drug concentrations were measured over 6 timepoints collected between 0 and 12 hours of incubation by liquid-chromatography-coupled mass spectrometry (LC–MS); set-up: dose 5 uM, timepoint 0, 1.5, 3, 6, 9, 12 hours; details: 5 µM
[15] = The drug is tested on the gut metagenome community of P-03 with ENA study accession number: PRJEB31790 for biotransformation under anaerobic condition. The drug concentrations were measured over 7 timepoints collected between 0 and 12 hours of incubation by liquid-chromatography-coupled mass spectrometry (LC–MS); set-up: dose 5 uM, timepoint 0, 0.75, 1.5, 3, 6, 9, 12 hours; details: 5 µM
[16] = The drug is tested on the gut metagenome community of A-05 with ENA study accession number: PRJEB31790 for biotransformation under anaerobic condition. The drug concentrations were measured over 7 timepoints collected between 0 and 12 hours of incubation by liquid-chromatography-coupled mass spectrometry (LC–MS); set-up: dose 5 uM, timepoint 0, 0.75, 1.5, 3, 6, 9, 12 hours; details: 5 µM
[17] = The drug is tested on Bifidobacterium longum strain: DSM20088 for biotransformation under microaerobic condition. The drug concentrations were measured over 6 timepoints collected between 0 and 12 hours of incubation by liquid-chromatography-coupled mass spectrometry (LC–MS); set-up: dose 5 uM, timepoint 0, 1.5, 3, 6, 9, 12 hours; details: 5 µM
[18] = The drug is tested on Streptococcus sanguinis strain: DSM20567 for biotransformation under anaerobic condition. The drug concentrations were measured over 6 timepoints collected between 0 and 12 hours of incubation by liquid-chromatography-coupled mass spectrometry (LC–MS); set-up: dose 5 uM, timepoint 0, 1.5, 3, 6, 9, 12 hours; details: 5 µM
[19] = The drug is tested on the gut metagenome community of T-01 with ENA study accession number: PRJEB31790 for biotransformation under microaerobic condition. The drug concentrations were measured over 7 timepoints collected between 0 and 12 hours of incubation by liquid-chromatography-coupled mass spectrometry (LC–MS); set-up: dose 5 uM, timepoint 0, 0.75, 1.5, 3, 6, 9, 12 hours; details: 5 µM
[20] = The drug is tested on the gut metagenome community of T-03 with ENA study accession number: PRJEB31790 for biotransformation under anaerobic condition. The drug concentrations were measured over 7 timepoints collected between 0 and 12 hours of incubation by liquid-chromatography-coupled mass spectrometry (LC–MS); set-up: dose 5 uM, timepoint 0, 0.75, 1.5, 3, 6, 9, 12 hours; details: 5 µM
[21] = The drug is tested on Dorea formicigenerans strain: DSM3992 for biotransformation under anaerobic condition. The drug concentrations were measured over 6 timepoints collected between 0 and 12 hours of incubation by liquid-chromatography-coupled mass spectrometry (LC–MS); set-up: dose 5 uM, timepoint 0, 1.5, 3, 6, 9, 12 hours; details: 5 µM
[22] = The drug is tested on the gut metagenome community of A-10 with ENA study accession number: PRJEB31790 for biotransformation under anaerobic condition. The drug concentrations were measured over 7 timepoints collected between 0 and 12 hours of incubation by liquid-chromatography-coupled mass spectrometry (LC–MS); set-up: dose 5 uM, timepoint 0, 0.75, 1.5, 3, 6, 9, 12 hours; details: 5 µM
[23] = The drug is tested on the gut metagenome community of A-09 with ENA study accession number: PRJEB31790 for biotransformation under anaerobic condition. The drug concentrations were measured over 7 timepoints collected between 0 and 12 hours of incubation by liquid-chromatography-coupled mass spectrometry (LC–MS); set-up: dose 5 uM, timepoint 0, 0.75, 1.5, 3, 6, 9, 12 hours; details: 5 µM
[24] = The drug is tested on Parabacteroides merdae strain: DSM19495 for biotransformation under anaerobic condition. The drug concentrations were measured over 6 timepoints collected between 0 and 12 hours of incubation by liquid-chromatography-coupled mass spectrometry (LC–MS); set-up: dose 5 uM, timepoint 0, 1.5, 3, 6, 9, 12 hours; details: 5 µM
[25] = The drug is tested on Escherichia coli strain: DSM27469 for biotransformation under microaerobic condition. The drug concentrations were measured over 6 timepoints collected between 0 and 12 hours of incubation by liquid-chromatography-coupled mass spectrometry (LC–MS); set-up: dose 5 uM, timepoint 0, 1.5, 3, 6, 9, 12 hours; details: 5 µM
[26] = The drug is tested on Gemella haemolysans strain: DSM107751 for biotransformation under anaerobic condition. The drug concentrations were measured over 6 timepoints collected between 0 and 12 hours of incubation by liquid-chromatography-coupled mass spectrometry (LC–MS); set-up: dose 5 uM, timepoint 0, 1.5, 3, 6, 9, 12 hours; details: 5 µM

Structure (SMILES): CCC(C)(C)C(=O)O[C@H]1C[C@@H](C)C=C2C=C[C@H](C)[C@H](CC[C@@H]3C[C@@H](O)CC(=O)O3)[C@H]21 [SIMVASTATIN]
- Bacterial Biotransformation [1]: Compound NOT metabolized
- Bacterial Biotransformation [2]: Compound NOT metabolized
- Bacterial Biotransformation [3]: Compound NOT metabolized
- Bacterial Biotransformation [4]: Compound NOT metabolized
- Bacterial Biotransformation [5]: Compound NOT metabolized
- Bacterial Biotransformation [6]: Compound NOT metabolized
- Bacterial Biotransformation [7]: Compound NOT metabolized
- Bacterial Biotransformation [8]: Compound NOT metabolized
- Bacterial Biotransformation [9]: Compound NOT metabolized
- Bacterial Biotransformation [10]: Compound NOT metabolized
- Bacterial Biotransformation [11]: Compound metabolized
- Bacterial Biotransformation [12]: Compound NOT metabolized
- Bacterial Biotransformation [13]: Compound NOT metabolized
- Bacterial Biotransformation [14]: Compound NOT metabolized
- Bacterial Biotransformation [15]: Compound NOT metabolized
- Bacterial Biotransformation [16]: Compound NOT metabolized
- Bacterial Biotransformation [17]: Compound NOT metabolized
- Bacterial Biotransformation [18]: Compound NOT metabolized
- Bacterial Biotransformation [19]: Compound NOT metabolized
- Bacterial Biotransformation [20]: Compound NOT metabolized
- Bacterial Biotransformation [21]: Compound NOT metabolized
- Bacterial Biotransformation [22]: Compound NOT metabolized
- Bacterial Biotransformation [23]: Compound NOT metabolized
- Bacterial Biotransformation [24]: Compound NOT metabolized
- Bacterial Biotransformation [25]: Compound NOT metabolized
- Bacterial Biotransformation [26]: Compound NOT metabolized

Structure (SMILES): CO[C@H]1C[C@@H]2CC[C@@H](C)[C@@](O)(O2)C(=O)C(=O)N2CCCC[C@H]2C(=O)O[C@H]([C@H](C)C[C@@H]2CC[C@@H](O)[C@H](OC)C2)CC(=O)[C@H](C)/C=C(\C)[C@@H](O)[C@@H](OC)C(=O)[C@H](C)C[C@H](C)/C=C/C=C/C=C/1C [SIROLIMUS]
- Bacterial Biotransformation [1]: Compound NOT metabolized
- Bacterial Biotransformation [2]: Compound metabolized
- Bacterial Biotransformation [3]: Compound NOT metabolized
- Bacterial Biotransformation [4]: Compound metabolized
- Bacterial Biotransformation [5]: Compound NOT metabolized
- Bacterial Biotransformation [6]: Compound NOT metabolized
- Bacterial Biotransformation [7]: Compound metabolized
- Bacterial Biotransformation [8]: Compound metabolized
- Bacterial Biotransformation [9]: Compound NOT metabolized
- Bacterial Biotransformation [10]: Compound metabolized
- Bacterial Biotransformation [11]: Compound NOT metabolized
- Bacterial Biotransformation [12]: Compound metabolized
- Bacterial Biotransformation [13]: Compound NOT metabolized
- Bacterial Biotransformation [14]: Compound NOT metabolized
- Bacterial Biotransformation [15]: Compound NOT metabolized
- Bacterial Biotransformation [16]: Compound metabolized
- Bacterial Biotransformation [17]: Compound NOT metabolized
- Bacterial Biotransformation [18]: Compound metabolized
- Bacterial Biotransformation [19]: Compound NOT metabolized
- Bacterial Biotransformation [20]: Compound NOT metabolized
- Bacterial Biotransformation [21]: Compound metabolized
- Bacterial Biotransformation [22]: Compound metabolized
- Bacterial Biotransformation [23]: Compound metabolized
- Bacterial Biotransformation [24]: Compound metabolized
- Bacterial Biotransformation [25]: Compound NOT metabolized
- Bacterial Biotransformation [26]: Compound metabolized

Structure (SMILES): C=CC[C@@H]1/C=C(\C)C[C@H](C)C[C@H](OC)[C@H]2O[C@@](O)(C(=O)C(=O)N3CCCC[C@H]3C(=O)O[C@H](/C(C)=C/[C@@H]3CC[C@@H](O)[C@H](OC)C3)[C@H](C)[C@@H](O)CC1=O)[C@H](C)C[C@@H]2OC.O [TACROLIMUS]
- Bacterial Biotransformation [1]: Compound metabolized
- Bacterial Biotransformation [2]: Compound NOT metabolized
- Bacterial Biotransformation [3]: Compound NOT metabolized
- Bacterial Biotransformation [4]: Compound NOT metabolized
- Bacterial Biotransformation [5]: Compound NOT metabolized
- Bacterial Biotransformation [6]: Compound NOT metabolized
- Bacterial Biotransformation [7]: Compound NOT metabolized
- Bacterial Biotransformation [8]: Compound NOT metabolized
- Bacterial Biotransformation [9]: Compound NOT metabolized
- Bacterial Biotransformation [10]: Compound metabolized
- Bacterial Biotransformation [11]: Compound NOT metabolized
- Bacterial Biotransformation [12]: Compound metabolized
- Bacterial Biotransformation [13]: Compound NOT metabolized
- Bacterial Biotransformation [14]: Compound NOT metabolized
- Bacterial Biotransformation [15]: Compound NOT metabolized
- Bacterial Biotransformation [16]: Compound NOT metabolized
- Bacterial Biotransformation [17]: Compound NOT metabolized
- Bacterial Biotransformation [18]: Compound NOT metabolized
- Bacterial Biotransformation [19]: Compound metabolized
- Bacterial Biotransformation [20]: Compound NOT metabolized
- Bacterial Biotransformation [21]: Compound metabolized
- Bacterial Biotransformation [22]: Compound metabolized
- Bacterial Biotransformation [23]: Compound metabolized
- Bacterial Biotransformation [24]: Compound NOT metabolized
- Bacterial Biotransformation [25]: Compound NOT metabolized
- Bacterial Biotransformation [26]: Compound NOT metabolized
